Reference: patent US20170182047A9, “Post-Translational Regulation of Catalytic Activities of Cytochrome P450 46A1 and Uses Thereof” (The Board of Regents of the University of Texas System, priority 2007, published 2017)
Structures can show the parent of a compound that is named as a salt. Where two headings read alike, the source gives them in different places.

Experiments:
full-length CYP46A1 [1] = target: T1, full-length CYP46A1 (Homo sapiens, UniProt Q9Y6A2); assay: Inhibition/stimulation of cholesterol hydroxylase activity at fixed 43 μM test compound; assay type: biochemical; conditions: for inhibition at 43 µM: read-out: inhibition of the CYP46A1; for Activity: cholesterol hydroxylation by CYP46A1, % of no compound; for CHO hydroxylation: remaining activity, None = 100, 43 μM added steroid; for inhibition of cholesterol hydroxylation (in words): FIG. 4A-4C
CYP46A1 [2] = target: T2, CYP46A1 (Homo sapiens, UniProt Q9Y6A2); assay: Spectral binding studies; set-up: 4×His (C)
Method: (§1) Titrations of CYP46A1dH were carried out in 50 mM KPi, pH 7.2, containing 100 mM NaCl and 0.02% Cymal-6. Steroids were added from 0.2-5 mM stocks in 2.5-45% aqueous 2-hydroxypropyl-p-cyclodextrin; clobenpropit, thioperamide, phenacetin, acetaminophen, 4′-(2-hydroxyethoxy)-acetanilide, quinine, quinidine, lansoprazole, and dapsone were dissolved in water, and tranylcypromine in 50% MetOH. The Kd and maximal absorbance change were estimated by non-linear least squares fitting using the quadratic form of the single-site binding equation (30).
Target sequence in this assay (Q9Y6A2 with tags, fused parts or gaps): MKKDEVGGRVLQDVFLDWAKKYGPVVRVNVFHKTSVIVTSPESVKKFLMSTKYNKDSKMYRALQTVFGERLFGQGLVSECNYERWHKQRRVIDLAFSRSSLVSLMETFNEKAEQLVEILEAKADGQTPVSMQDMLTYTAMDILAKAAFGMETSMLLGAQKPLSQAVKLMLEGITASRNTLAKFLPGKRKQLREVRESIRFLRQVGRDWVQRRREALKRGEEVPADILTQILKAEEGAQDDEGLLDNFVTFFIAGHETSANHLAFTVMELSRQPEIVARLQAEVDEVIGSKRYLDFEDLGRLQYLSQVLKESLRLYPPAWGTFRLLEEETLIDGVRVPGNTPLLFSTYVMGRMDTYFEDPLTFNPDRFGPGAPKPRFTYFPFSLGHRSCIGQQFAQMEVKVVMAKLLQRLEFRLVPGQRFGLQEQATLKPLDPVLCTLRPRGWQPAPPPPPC

CYP46A1 [3] = target: T2, CYP46A1; assay: Spectral binding studies; set-up: fused on or other part: C-terminal 4xHis tag (dH); conditions: Table 2
Method: as §1
Target sequence in this assay (Q9Y6A2 whole entry): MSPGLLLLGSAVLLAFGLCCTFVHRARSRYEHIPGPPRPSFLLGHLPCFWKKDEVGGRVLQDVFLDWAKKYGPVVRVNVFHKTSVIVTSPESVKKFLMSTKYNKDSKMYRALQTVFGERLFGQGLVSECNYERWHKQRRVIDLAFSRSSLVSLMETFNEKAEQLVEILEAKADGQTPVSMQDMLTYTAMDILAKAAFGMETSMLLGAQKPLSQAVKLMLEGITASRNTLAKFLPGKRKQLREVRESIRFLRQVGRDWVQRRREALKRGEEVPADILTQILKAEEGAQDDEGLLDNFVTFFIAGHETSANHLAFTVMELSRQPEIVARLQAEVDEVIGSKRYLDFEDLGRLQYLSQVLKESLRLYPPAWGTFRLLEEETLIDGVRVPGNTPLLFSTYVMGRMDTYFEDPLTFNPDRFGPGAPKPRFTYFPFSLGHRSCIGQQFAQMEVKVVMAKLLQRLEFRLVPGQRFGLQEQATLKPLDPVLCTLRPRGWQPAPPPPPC

CYP46A1 [4] = target: T2, CYP46A1; assay: In vitro IC50 and Ki for CYP46A1-catalysed hydroxylation; assay type: biochemical; set-up: Recombinant full-length human CYPs 46A1 and 27A1 and bovine CYP11A1 were expressed and purified; made in house; conditions: Ki = IC50/2 assuming competitive inhibition; 5.4 μM cholesterol (at Km); read-out: Ki
Method: Cholesterol hydroxylation by CYP46A1 was assayed for 20 min at 37° C. in 1 ml of 50 mM KPi, pH 7.2, containing 100 mM NaCl, 0.02% Cymal 6, 40 μg dilauroylglycerol-3-phosphatidylcholine and 2U of catalase. […] The enzymatic reaction was initiated by NADPH (final 1 mM) and terminated by vortexing with 2 ml of CH2Cl2. The organic phase was isolated, evaporated, dissolved in methanol, and subjected to HPLC. […] In addition, the Ki for cholesterol 24-hydroxylation was estimated assuming a model of competitive inhibition.
Target sequence in this assay (Q9Y6A2 whole entry): as above

full-length CYP46A1 [5] = target: T1, full-length CYP46A1; assay: Kinetic studies, reconstituted system with cytochrome P450 reductase, full-length CYP46A1; conditions: compound as substrate; for kcat: Full-length CYP46A1 with C-terminal 4x His-tag, 37° C.
Method: (§2) The ability of recombinant CYP46A1 to metabolize CH-3S was tested using the reconstituted with cytochrome P450 reductase in vitro system. After termination of the enzyme reaction, the substrate and products were extracted, solvolyzed, converted into trimethylsilyl ethers and analyzed by gas chromatography-mass spectrometry as described (23). […] The reaction conditions were optimized for the formation of only one product.
(§3) The reconstituted system (1 ml) contained 0.1-0.25 μM P450, 0.5 μM NADPH cytochrome P450 oxidoreductase, varying concentrations of cold substrate (1-75 μM), 250,000 cpm of radiolabeled substrate, and 2U of catalase. […] The organic phase was isolated, evaporated, dissolved in acetonitrile, and subjected to HPLC. […] Substrate metabolism was <18% and linear with reaction time and enzyme concentration.

Δ(2-50)CYP46A1dH = Δ(2-50)CYP46A1dH (Homo sapiens, UniProt Q9Y6A2); assay: Kinetic studies, reconstituted system with cytochrome P450 reductase, truncated CYP46A1; conditions: compound as substrate; for kcat: Δ(2-50) CYP46A1 with C-terminal 4x His-tag, 37° C.
Method: as §2, §3

[6] = 2.7 μM cholesterol, 43 μM compound, FIG. 4B, 4D, 4E
[7] = 2.7 μM cholesterol, 43 μM compound

T1 sequence (Q9Y6A2 whole entry): as above
Δ(2-50)CYP46A1dH, sequence (Q9Y6A2 with tags, fused parts or gaps): as the sequence (Q9Y6A2 with tags, fused parts or gaps) above

CN/C(=N/CCSCc1nc[nH]c1C)NC#N [cimetidine]
inhibition at 43 µM (full-length CYP46A1 [1]; [6]): > 90%

CC(=O)Nc1ccc(OCCO)cc1 [Phenacetin analog 1, 4′-(2-hydroxyethoxy)-acetanilide]
increase (stimulation) of cholesterol 24-hydroxylation (full-length CYP46A1 [1]; 43 μM compound): 45% | Activity (full-length CYP46A1 [1]; 43 μM compound): 145 ± 5%

estradiol sulfate [Estradiol-SO4]
CHO hydroxylation (full-length CYP46A1 [1]; 2.7 μM cholesterol): 27 ± 2%

CCOc1ccc(NC(C)=O)cc1 [Phenacetin]
Activity (full-length CYP46A1 [1]; 43 μM compound): 135 ± 5%

Acetaminophen
Activity (full-length CYP46A1 [1]; 43 μM compound): 132 ± 4%

DHEA
CHO hydroxylation (full-length CYP46A1 [1]; 2.7 μM cholesterol): 58 ± 3%

C[C@]12CC[C@H]3[C@@H](CCC4=CC(=O)CC[C@@]43C)[C@@H]1CC[C@@H]2O [Testosterone]
CHO hydroxylation (full-length CYP46A1 [1]; 2.7 μM cholesterol): 49 ± 4%

Cc1cccc(C)c1OCC(C)N (stereo not shown) [Mexiletine]
Activity (full-length CYP46A1 [1]; 43 μM compound): 107 ± 3%

CC(C)CCC[C@@H](C)[C@H]1CC[C@H]2[C@@H]3CC=C4C[C@@H](O)CC[C@]4(C)[C@H]3CC[C@]12C [Cholesterol]
CHO hydroxylation (full-length CYP46A1 [1]; 2.7 μM cholesterol): 27 ± 3% | Kd (CYP46A1 [2]; Δ(2-50)CYP46A1dH, read-out: estimated Kd): 100 nM | Kd (CYP46A1 [3]): 670 ± 20 nM

NC(=NCc1ccc(Cl)cc1)SCCCc1cnc[nH]1 [clobenpropit]
inhibition at 43 µM (full-length CYP46A1 [1]): > 90%

pregnenolone sulfate [Pregnenolone-SO4]
CHO hydroxylation (full-length CYP46A1 [1]; 2.7 μM cholesterol): 8 ± 2% | Ki (CYP46A1 [4]): 2500 nM

CC(C)CCC[C@@H](C)[C@H]1CC[C@H]2[C@@H]3CC=C4C[C@@H](OS(=O)(=O)O)CC[C@]4(C)[C@H]3CC[C@]12C [Cholesterol-SO4, cholesterol sulfate]
Kd (CYP46A1 [2]): 7 nM | Kd (CYP46A1 [3]): 50 ± 3 nM | kcat (full-length CYP46A1 [5]): 0.00767 s⁻¹ | kcat (Δ(2-50)CYP46A1dH): 0.0417 s⁻¹

S=C(NC1CCCCC1)N1CCC(c2cnc[nH]2)CC1 [thioperamide]
inhibition of cholesterol hydroxylation (in words) (full-length CYP46A1 [1]; [7]): inhibited cholesterol hydroxylation

testosterone sulfate [Testosterone-SO4]
CHO hydroxylation (full-length CYP46A1 [1]; 2.7 μM cholesterol): 40 ± 2%

Clc1ccc(-c2c[nH]cn2)cc1 [4-CPi, 4-(4-chlorophenyl)imidazole]
inhibition of cholesterol hydroxylation (in words) (full-length CYP46A1 [1]; [7]): significant inhibition

CNC(=C[N+](=O)[O-])NCCSCc1ccc(CN(C)C)o1 [ranitidine]
inhibition at 43 µM (full-length CYP46A1 [1]; [6]): > 90%

NC(N)=Nc1nc(CSCCC(N)=NS(N)(=O)=O)cs1 [famotidine]
inhibition of cholesterol hydroxylation (in words) (full-length CYP46A1 [1]; [7]): inhibited cholesterol hydroxylation

Clc1ccccc1C(c1ccccc1)(c1ccccc1)n1ccnc1 [clotrimazole]
inhibition of cholesterol hydroxylation (in words) (full-length CYP46A1 [1]; [7]): significant inhibition

DHEA sulfate [DHEA-SO4]
CHO hydroxylation (full-length CYP46A1 [1]; 2.7 μM cholesterol): 33 ± 3%

C[C@]12CC[C@@H]3c4ccc(O)cc4CC[C@H]3[C@@H]1CC[C@@H]2O [Estradiol]
CHO hydroxylation (full-length CYP46A1 [1]; 2.7 μM cholesterol): 32 ± 3%

CC(=O)[C@H]1CC[C@H]2[C@@H]3CC=C4C[C@@H](O)CC[C@]4(C)[C@H]3CC[C@]12C [Pregnenolone]
CHO hydroxylation (full-length CYP46A1 [1]; 2.7 μM cholesterol): 32 ± 1% | Spectral Kd (CYP46A1 [3]): Not determined, no spectral

CNC(=C[N+](=O)[O-])NCCSCc1csc(CN(C)C)n1 [nizatidine]
inhibition of cholesterol hydroxylation (in words) (full-length CYP46A1 [1]; [7]): inhibited cholesterol hydroxylation

CC(C)[C@@H](O)CC[C@@H](C)[C@H]1CC[C@H]2[C@@H]3CC=C4C[C@@H](O)CC[C@]4(C)[C@H]3CC[C@]12C [24OH—CH, 24S-hydroxycholesterol]
Km (full-length CYP46A1 [5]; Full-length CYP46A1): 3.9 µM | kcat (full-length CYP46A1 [5]): 0.0153 s⁻¹ | Km (Δ(2-50)CYP46A1dH; Δ(2-50) CYP46A1): 1.5 µM | kcat (Δ(2-50)CYP46A1dH): 0.0142 s⁻¹
